Assay results published in patent publication US20250215029A1 (Recludix Pharma, Inc., priority 2022, published 2025).

The compounds below were run against T1, pY705-STAT3 in PBMC (Homo sapiens, UniProt P40763) (assay: MSD-pSTAT-PBMC Assay (pSTAT3, IL-6 stimulated)). Conditions: PBMC, compound 3 hrs, then 10 ng/mL IL-6 for 10 min; Table 115; read-out: STAT3.
T1 construct: Cryopreserved Peripheral Blood Mononuclear Cells (PBMC) are from AllCells; host or cells: cryopreserved PBMC
T1 sequence (P40763 whole entry): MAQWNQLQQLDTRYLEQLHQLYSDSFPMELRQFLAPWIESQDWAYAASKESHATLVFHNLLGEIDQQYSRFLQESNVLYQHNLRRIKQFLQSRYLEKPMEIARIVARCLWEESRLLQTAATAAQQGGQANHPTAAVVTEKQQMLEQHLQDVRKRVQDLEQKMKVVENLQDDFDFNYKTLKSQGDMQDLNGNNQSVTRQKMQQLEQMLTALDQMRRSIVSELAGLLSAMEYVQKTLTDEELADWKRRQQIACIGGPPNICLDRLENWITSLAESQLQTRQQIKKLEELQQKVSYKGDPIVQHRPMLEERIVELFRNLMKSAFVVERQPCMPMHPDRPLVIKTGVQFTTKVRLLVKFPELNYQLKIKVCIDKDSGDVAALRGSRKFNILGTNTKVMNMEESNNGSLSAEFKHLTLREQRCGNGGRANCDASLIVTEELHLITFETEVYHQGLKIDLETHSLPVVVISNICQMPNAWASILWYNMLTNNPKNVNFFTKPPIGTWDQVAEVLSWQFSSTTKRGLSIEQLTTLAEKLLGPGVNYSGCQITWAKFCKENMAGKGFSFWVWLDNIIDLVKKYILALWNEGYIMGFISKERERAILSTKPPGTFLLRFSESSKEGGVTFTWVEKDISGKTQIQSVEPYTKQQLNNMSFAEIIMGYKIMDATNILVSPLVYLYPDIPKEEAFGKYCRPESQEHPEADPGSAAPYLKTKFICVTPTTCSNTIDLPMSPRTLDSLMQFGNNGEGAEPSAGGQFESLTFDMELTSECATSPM
Format: cell-based
How it was run: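 pY705-STAT3 was detected electrochemiluminescently on total-STAT3 capture plates, using lysates of human PBMCs given compound for 3 h and then IL-6 (10 ng/mL, 10 min). Values were background-subtracted against unstimulated wells and set relative to DMSO. IC50 was fitted with variable slope.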
In the case of CCCOC(=O)[C@H](C)NP(=O)(Cc1ccc2sc(C(=O)N[C@H]3CCC[C@H]4CC[C@@H](C(=O)N5CC(c6cnccc6O)C5)N4C3=O)cc2c1)Oc1ccccc1 (stereo partly drawn) [Compound 975, propyl (((2-(((3S,6S,9aS)-3-(3-(4-hydroxypyridin-3-yl)azetidine-1-carbonyl)-5-oxooctahydro-1H-pyrrolo[1,2-a]azepin-6-yl)carbamoyl)benzo [b]thiophen-5-yl)methyl)(phenoxy)phosphoryl)-L-alaninate], the IC50 is reported as < 100 nM.
CCCOC(=O)[C@H](C)NP(=O)(Oc1ccccc1)C(F)c1ccc2sc(C(=O)N[C@H]3CCC[C@H]4CC[C@@H](C(=O)N5CC(c6cccc(C#N)n6)C5)N4C3=O)cc2c1 (stereo partly drawn) [Compound 266, propyl (((2-(((3S,6S,9aS)-3-(3-(6-cyanopyridin-2-yl)azetidine-1-carbonyl)-5-oxooctahydro-1H-pyrrolo[1,2-a]azepin-6-yl)carbamoyl)benzo [b]thiophen-5-yl)fluoromethyl) (phenoxy)phosphoryl)-L-alaninate] was tested, and the IC50 was < 100 nM.
CCCOC(=O)[C@H](C)NP(=O)(Oc1ccccc1)C(F)c1ccc2sc(C(=O)N[C@H]3CCC[C@H]4CC[C@@H](C(=O)N5CC(c6cc(F)ccc6F)C5)N4C3=O)cc2c1 (stereo partly drawn) [Compound 986, propyl (((2-(((3S,6S,9aS)-3-(3-(2,5-difluorophenyl)azetidine-1-carbonyl)-5-oxooctahydro-1H-pyrrolo[1,2-a]azepin-6-yl)carbamoyl)benzo [b]thiophen-5-yl)fluoromethyl) (phenoxy)phosphoryl)-L-alaninate] showed an IC50 of 1000 to 3000 nM.
COc1ccncc1C1CN(C(=O)[C@@H]2CC[C@@H]3CCC[C@H](NC(=O)c4cc5cc([C@H](F)[P@](=O)(N[C@@H](C)C(=O)OCC(C)(C)C)Oc6ccccc6)ccc5s4)C(=O)N32)C1 (single isomer, unassigned) [Compound 960] showed an IC50 of 100 to 1000 nM.
Work on CCCOC(=O)[C@H](C)NP(=O)(Oc1ccccc1)[C@H](F)c1ccc2sc(C(=O)N[C@H]3CCC[C@H]4CC[C@@H](C(=O)N5CC(c6cnccc6N6CC(C#N)C6)C5)N4C3=O)cc2c1 (stereo partly drawn) [Compound 1061, propyl (((S)-(2-(((3S,6S,9aS)-3-(3-(4-(3-cyanoazetidin-1-yl)pyridin-3-yl)azetidine-1-carbonyl)-5-oxooctahydro-1H-pyrrolo[1,2-a]azepin-6-yl)carbamoyl)benzo [b]thiophen-5-yl)fluoromethyl) (phenoxy)phosphoryl)-L-alaninate] yielded an IC50 of 100 to 1000 nM.
In the case of CCCOC(=O)[C@H](C)NP(=O)(Cc1ccc2sc(C(=O)N[C@H]3CC(C)C[C@H]4CC[C@@H](C(=O)N5CC(c6cnccc6C)C5)N4C3=O)cc2c1)Oc1ccccc1 (stereo partly drawn) [Compound 251, propyl (((2-(((3S,6S,9aR)-8-methyl-3-(3-(4-methylpyridin-3-yl)azetidine-1-carbonyl)-5-oxooctahydro-1H-pyrrolo[1,2-a]azepin-6-yl)carbamoyl)benzo [b]thiophen-5-yl)methyl)(phenoxy)phosphoryl)-L-alaninate], the IC50 is reported as < 100 nM.
With CCCOC(=O)[C@H](C)NP(=O)(Cc1ccc2sc(C(=O)N[C@H]3CCC[C@H]4CC[C@@H](C(=O)N5CC(c6cnccc6CC)C5)N4C3=O)cc2c1)Oc1ccccc1 (stereo partly drawn) [Compound 257, propyl (((2-(((3S,6S,9aS)-3-(3-(4-ethylpyridin-3-yl)azetidine-1-carbonyl)-5-oxooctahydro-1H-pyrrolo[1,2-a]azepin-6-yl)carbamoyl)benzo [b]thiophen-5-yl)methyl)(phenoxy)phosphoryl)-L-alaninate] the IC50 was < 100 nM.
For Cn1cnnc1C1CN(C(=O)[C@@H]2CC[C@@H]3CCC[C@H](NC(=O)c4cc5cc(C(F)(F)P(=O)(OCCSC(=O)C(C)(C)C)OCCSC(=O)C(C)(C)C)ccc5s4)C(=O)N32)C1 [Compound 967, S,S′-((((difluoro(2-(((3S,6S,9aS)-3-(3-(4-methyl-4H-1,2,4-triazol-3-yl)azetidine-1-carbonyl)-5-oxooctahydro-1H-pyrrolo[1,2-a]azepin-6-yl)carbamoyl)benzo [b]thiophen-5-yl)methyl)phosphoryl)bis(oxy))bis(ethane-2,1-diyl)) bis(2,2-dimethyl-propanethioate)], the IC50 was < 100 nM.
CCCOC(=O)[C@H](C)NP(=O)(Oc1ccccc1)[C@@H](F)c1ccc2sc(C(=O)N[C@H]3CCC[C@H]4CC[C@@H](C(=O)N5CC(c6cnccc6N6CCC6)C5)N4C3=O)cc2c1 (stereo partly drawn) [Compound 1028, propyl (((R)-(2-(((3S,6S,9aS)-3-(3-(4-(azetidin-1-yl)pyridin-3-yl)azetidine-1-carbonyl)-5-oxooctahydro-1H-pyrrolo[1,2-a]azepin-6-yl)carbamoyl)benzo [b]thiophen-5-yl)fluoromethyl) (phenoxy)phosphoryl)-L-alaninate] was tested, and the IC50 was 100 to 1000 nM.
CCCOC(=O)[C@H](C)NP(=O)(Cc1ccc2sc(C(=O)N[C@H]3C[C@H](C)C[C@H]4CC[C@@H](C(=O)N5CC(c6cnccc6C)C5)N4C3=O)cc2c1)Oc1ccccc1 (stereo partly drawn) [Compound 283, propyl (((2-(((3S,6S,8S,9aR)-8-methyl-3-(3-(4-methylpyridin-3-yl)azetidine-1-carbonyl)-5-oxooctahydro-1H-pyrrolo[1,2-a]azepin-6-yl)carbamoyl)benzo [b]thiophen-5-yl)methyl)(phenoxy)phosphoryl)-L-alaninate] was tested, and the IC50 was < 100 nM.
O=C(Cc1ccccc1)SCCOP(=O)(OCCSC(=O)Cc1ccccc1)C(F)(F)c1ccc2sc(C(=O)N[C@H]3CCC[C@H]4CC[C@@H](C(=O)N5CC(c6cccnc6)C5)N4C3=O)cc2c1 [Compound 1006, S,S′-((((difluoro(2-(((3S,6S,9aS)-5-oxo-3-(3-(pyridin-3-yl)azetidine-1-carbonyl)octahydro-1H-pyrrolo[1,2-a]azepin-6-yl)carbamoyl)benzo [b]thiophen-5-yl)methyl)phosphoryl)bis(oxy))bis(ethane-2,1-diyl)) bis(2-phenylethanethioate)] was tested, and the IC50 was < 100 nM.
In the case of C[C@H](NP(=O)(Cc1ccc2sc(C(=O)N[C@H]3CCC[C@H]4CC[C@@H](C(=O)N5CC(c6cccnc6)C5)N4C3=O)cc2c1)Oc1ccccc1)C(=O)OCc1ccccc1 (stereo partly drawn) [Compound 394, benzyl (((2-(((3S,6S,9aS)-5-oxo-3-(3-(pyridin-3-yl)azetidine-1-carbonyl)octahydro-1H-pyrrolo[1,2-a]azepin-6-yl)carbamoyl)benzo [b]thiophen-5-yl)methyl)(phenoxy)phosphoryl)-L-alaninate], the IC50 is reported as < 100 nM.
Compound CCCOC(=O)CNP(=O)(Cc1ccc2sc(C(=O)N[C@H]3CCC[C@H]4CC[C@@H](C(=O)N5CC(c6cccnc6)C5)N4C3=O)cc2c1)Oc1ccccc1 (stereo partly drawn) [Compound 264, propyl (((2-(((3S,6S,9aS)-5-oxo-3-(3-(pyridin-3-yl)azetidine-1-carbonyl)octahydro-1H-pyrrolo[1,2-a]azepin-6-yl)carbamoyl)benzo [b]thiophen-5-yl)methyl)(phenoxy)phosphoryl)glycinate] has an IC50 of 100 to 1000 nM.
In the case of CC(C)(C)C(=O)SCCOP(=O)(OCCSC(=O)C(C)(C)C)C(F)(F)c1ccc2sc(C(=O)N[C@H]3CCC[C@H]4CC[C@@H](C(=O)NCc5cnc6[nH]cnc6c5)N4C3=O)cc2c1 [Compound 1002, S,S′-(((((2-(((3S,6S,9aS)-3-(((3H-imidazo[4,5-b]pyridin-6-yl)methyl)carbamoyl)-5-oxooctahydro-1H-pyrrolo[1,2-a]azepin-6-yl)carbamoyl)benzo [b]thiophen-5-yl)difluoromethyl)phosphoryl)bis(oxy))bis(ethane-2,1-diyl)) bis(2,2-dimethyl-propanethioate)], the IC50 is reported as < 100 nM.
For CCCOC(=O)[C@H](C)N[P@@](=O)(Oc1ccccc1)[C@H](F)c1ccc2sc(C(=O)N[C@H]3CCC[C@H]4CC[C@@H](C(=O)N5CC(c6cnccc6C)C5)N4C3=O)cc2c1 (single isomer, unassigned) [Compound 1000], the IC50 was < 100 nM.
CCOC(=O)[C@H](Cc1ccccc1)NP(=O)(Cc1ccc2sc(C(=O)N[C@H]3CCC[C@H]4CC[C@@H](C(=O)N5CC(c6cccnc6)C5)N4C3=O)cc2c1)Oc1ccccc1 (stereo partly drawn) [Compound 389, ethyl (((2-(((3S,6S,9aS)-5-oxo-3-(3-(pyridin-3-yl)azetidine-1-carbonyl)octahydro-1H-pyrrolo[1,2-a]azepin-6-yl)carbamoyl)benzo [b]thiophen-5-yl)methyl)(phenoxy)phosphoryl)-L-phenylalaninate] showed an IC50 of 100 to 1000 nM.
With CCCOC(=O)[C@H](C)N[P@@](=O)(Oc1ccccc1)[C@@H](F)c1ccc2sc(C(=O)N[C@H]3CCC[C@H]4CC[C@@H](C(=O)N5CC(c6cccnc6)C5)N4C3=O)cc2c1 [Compound 447] the IC50 was < 100 nM.
COc1ccncc1C1CN(C(=O)[C@@H]2CC[C@@H]3CCC[C@H](NC(=O)c4cc5cc([C@H](F)[P@@](=O)(N[C@@H](C)C(=O)OCc6ccccc6)Oc6ccccc6)ccc5s4)C(=O)N32)C1 (single isomer, unassigned) [Compound 1050] was tested, and the IC50 was 100 to 1000 nM.
Work on CCCOC(=O)C(C)CNP(=O)(Cc1ccc2sc(C(=O)N[C@H]3CCC[C@H]4CC[C@@H](C(=O)N5CC(c6cccnc6)C5)N4C3=O)cc2c1)Oc1ccccc1 (stereo partly drawn) [Compound 294, propyl 2-methyl-3-((((2-(((3S,6S,9aS)-5-oxo-3-(3-(pyridin-3-yl)azetidine-1-carbonyl)octahydro-1H-pyrrolo[1,2-a]azepin-6-yl)carbamoyl)benzo [b]thiophen-5-yl)methyl)(phenoxy)phosphoryl)amino) propanoate] yielded an IC50 of 1000 to 3000 nM.
For CCCCOC(=O)[C@H](C)NP(=O)(Cc1ccc2sc(C(=O)N[C@H]3CCC[C@H]4CC[C@@H](C(=O)N5CC(c6cccnc6)C5)N4C3=O)cc2c1)Oc1ccccc1 (stereo partly drawn) [Compound 279, butyl (((2-(((3S,6S,9aS)-5-oxo-3-(3-(pyridin-3-yl)azetidine-1-carbonyl)octahydro-1H-pyrrolo[1,2-a]azepin-6-yl)carbamoyl)benzo [b]thiophen-5-yl)methyl)(phenoxy)phosphoryl)-L-alaninate], the IC50 was < 100 nM.
